Data as given in patent US10633338B2, “Binding Function 3 (BF3) site compounds as therapeutics and methods for their use” (THE UNIVERSITY OF BRITISH COLUMBIA, priority 2014, dated 2020).

The molecules below were run against T1, androgen receptor (AR) (Homo sapiens, UniProt P10275, T878A) (assay: eGFP cellular AR transcription assay). Conditions: LN-ARR2PB-eGFP LNCaP cells, 0.1 nM R1881, 3 days, 0-100 μM compound; read-out: IC50 (eGFP); call rule not given here.
T1 construct: stably transfected eGFP-expressing LNCaP human prostate cancer cells (LN-ARR2PB-eGFP) containing an androgen responsive probasin-derived promoter; endogenous in cells; host or cells: LNCaP (LN-ARR2PB-eGFP)
T1 sequence (P10275 1-920 T878A): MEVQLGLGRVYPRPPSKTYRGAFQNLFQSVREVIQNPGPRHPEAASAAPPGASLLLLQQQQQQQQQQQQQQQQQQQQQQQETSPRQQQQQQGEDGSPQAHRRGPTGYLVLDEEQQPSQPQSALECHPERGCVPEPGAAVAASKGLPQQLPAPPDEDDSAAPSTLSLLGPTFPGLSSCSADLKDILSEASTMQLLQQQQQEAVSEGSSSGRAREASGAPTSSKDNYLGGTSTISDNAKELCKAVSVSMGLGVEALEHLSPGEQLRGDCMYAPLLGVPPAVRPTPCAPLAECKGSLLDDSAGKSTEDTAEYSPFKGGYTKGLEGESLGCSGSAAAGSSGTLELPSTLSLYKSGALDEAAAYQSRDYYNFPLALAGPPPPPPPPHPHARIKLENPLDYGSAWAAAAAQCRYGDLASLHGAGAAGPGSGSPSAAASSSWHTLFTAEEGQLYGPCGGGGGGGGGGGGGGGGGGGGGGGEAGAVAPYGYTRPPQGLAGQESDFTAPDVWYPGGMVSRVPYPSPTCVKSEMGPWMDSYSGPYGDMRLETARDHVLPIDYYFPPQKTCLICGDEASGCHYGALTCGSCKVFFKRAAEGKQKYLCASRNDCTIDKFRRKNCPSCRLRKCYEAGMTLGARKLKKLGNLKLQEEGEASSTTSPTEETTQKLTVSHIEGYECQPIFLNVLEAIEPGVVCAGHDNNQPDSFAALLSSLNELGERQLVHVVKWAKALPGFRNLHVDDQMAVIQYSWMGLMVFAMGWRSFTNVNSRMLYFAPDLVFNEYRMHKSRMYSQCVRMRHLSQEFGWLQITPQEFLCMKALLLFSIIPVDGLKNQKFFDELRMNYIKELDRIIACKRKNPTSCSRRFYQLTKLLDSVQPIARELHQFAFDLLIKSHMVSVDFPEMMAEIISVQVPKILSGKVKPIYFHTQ
Format: cell-based
Description: After 5 days, the cells were plated into a 96-well plate (35,000 cells/well) with 0.1 nM of the synthetic androgen R1881 and increasing concentrations (0-100 μM) of compound.
After 5 days, the cells were plated into a 96-well plate (35,000 cells/well) with 0.1 nM R1881 and increasing concentrations (0-100 μM) of compound.
In this assay, the expression of eGFP is under the control of an androgen responsive probasin-derived promoter and can quantify AR transcriptional activity.

IC50 | Compound
5.7 µM | CC1(C)c2cc(Br)ccc2NC1c1c[nH]c2cc(O)ccc12 (stereo not drawn) [13 542]
10.7 µM | CC1(C)c2ccccc2NC1c1c[nH]c2cnccc12 (stereo not drawn) [13 561]
2.9 µM | FC(F)(F)c1ccc2c(-c3ccc4ccccc4n3)c[nH]c2c1 [13 580]
1.6 µM | Fc1cccc2c(-c3ccc4ccccc4n3)c[nH]c12 [13 569]
2.3 µM | CC1(C)c2ccccc2NC1c1c[nH]c2ncccc12 (stereo not drawn) [13 560]
1.6 µM | CC1(C)c2ccccc2NC1c1c[nH]c2c(CO)cccc12 (stereo not drawn) [13 558]
15.5 µM | Oc1ccc2c(C3Nc4ccccc4C34CCCCC4)c[nH]c2c1 (stereo not drawn) [13 551]
0.7 µM | c1ccc2nc(-n3ncc4ccccc43)ccc2c1 [13 572]
4.9 µM | c1cncc(-c2c[nH]c3cnccc23)c1 [13 581]
11.4 µM | CC1(C)c2ccccc2NC1c1c[nH]c2cc(OCc3ccccc3)ccc12 (stereo not drawn) [13 544]
7.7 µM | CC1(C)c2ccccc2NC1c1c[nH]c2ccc(N)cc12 (stereo not drawn) [13 538]
6.6 µM | c1ccc2c(c1)N=C(c1c[nH]c3ncccc13)C21CCCCC1 [13 559]
5.6 µM | Cc1cc(-c2c[nH]c3ccccc23)nc2ccccc12 [13 547]
5.3 µM | c1ccc(COc2ccc3c(-c4ccc5ccccc5n4)c[nH]c3c2)cc1 [13 589]
11.8 µM | c1ccc(COc2ccc3c(C4Nc5ccccc5C45CCCCC5)c[nH]c3c2)cc1 (stereo not drawn) [13 550]
20 µM | Cc1[nH]c2ccccc2c1-c1ccc2ccccc2n1 [13 570]
1.1 µM | Cn1cc(-c2ccc3ccccc3n2)c2ccccc21 [13 571]

Same assay, conditions: LN-ARR2PBeGFP LNCaP cells, 0.1 nM R1881, 3 days incubation

Compound | eGFP IC50
CC1(C)c2ccccc2NC1c1c[nH]c2c(F)cccc12 (stereo not drawn) [Compound 13555] | Inactive
CC1(C)c2ccccc2NC1c1c[nH]c2c(C(=O)O)cccc12 (stereo not drawn) [Compound 13557] | Inactive

Same assay, conditions: LN-ARR2PBeGFP LNCaP cells, 0.1 nM R1881, 3 days incubation; read-out: eGFP IC50

IC50 | Compound
11.4 µM | CC1(C)c2ccccc2NC1c1c[nH]c2cc(OCc3ccccc3)ccc12 (stereo not drawn) [Compound 13544]
0.11 µM | Cc1cccc2c(-c3ccc4c(-c5cncs5)cccc4n3)c[nH]c12 [Compound 13782]
20 µM | O=C(/C=C/c1c[nH]c2cc(Br)ccc12)c1cc2ccccc2[nH]1 [Compound 9034]
6.6 µM | c1ccc2c(c1)N=C(c1c[nH]c3cnccc13)C21CCCCC1 [Compound 13559]
7.7 µM | CC1(C)c2ccccc2NC1c1c[nH]c2ccc(N)cc12 (stereo not drawn) [Compound 13538]
4.7 µM | C(=C(c1ccccc1)c1ccccc1)c1c[nH]c2ccccc12 [Compound 13250]
3.6 µM | Cn1cc(C2Nc3ccccc3C2(C)C)c2ccccc21 (stereo not drawn) [Compound 13516]
4.1 µM | Brc1ccc2c(c1)NC(c1c[nH]c3ccc(Br)cc13)C2 (stereo not drawn) [Compound 13502]
1.63 µM | Cc1ccc(F)c2c(-c3ccc4ccccc4n3)c[nH]c12 [Compound 13650]
1.8 µM | O=Nn1cc(-c2cc3ccccc3n2N=O)c2ccccc21 [Compound 13206]
2.57 µM | Cc1ccc2c(-c3ccc4ccccc4n3)c[nH]c2c1 [Compound 13574]
2.5 µM | Cn1cc(CCc2ccncc2)c2ccccc21 [Compound 13202]
7.72 µM | O=C(Nc1n[nH]c2cc(Br)ccc12)c1cc(Br)ccc1O [Compound 9027]
> 200 µM | O=C(Nc1nc2ccc(Br)cc2s1)c1ccccc1O [Compound 9039]
10 µM | O=C(Nc1nc2cc(Br)ccc2s1)c1cc(Br)ccc1O [Compound 9028]
0.56 µM | Cc1cccc2c(-c3ccc4cc(F)ccc4n3)c[nH]c12 [Compound 13573]
11.8 µM | c1ccc(COc2ccc3c(C4Nc5ccccc5C45CCCCC5)c[nH]c3c2)cc1 (stereo not drawn) [Compound 13550]
10.3 µM | Cc1ccc(/N=C/c2c[nH]c3ccccc23)cc1C [Compound 13310]
20 µM | Cc1[nH]c2ccccc2c1-c1ccc2ccccc2n1 [Compound 13570]
10.7 µM | CC1(C)c2ccccc2NC1c1c[nH]c2cnccc12 (stereo not drawn) [Compound 13561]

IC50 | Compound
4.5 µM | Brc1ccc2c(c1)CC(c1c[nH]c3ccc(Br)cc13)N2 (stereo not drawn) [Compound 13503]
2.1 µM | C[C@@H]1Cc2ccccc2N1c1nc2ccccc2o1 [Compound 13261]
2 µM | Clc1ccc(N/N=C2\CCc3ccccc32)cc1Cl [Compound 13215]
2.5 µM | Brc1ccc2[nH]c(-c3nc4ccccc4s3)cc2c1 [Compound 13540]
6 µM | CC1(C)c2cc(Br)ccc2NC1c1c[nH]c2ccc(Br)cc12 (stereo not drawn) [Compound 13512]
3.4 µM | O=C(Nc1ccc(-n2cnc3ccccc32)cc1)c1ccco1 [Compound 6054]
39.1 µM | O=C(Nc1nc2ccc(Br)cc2s1)c1ccc(Br)cc1O [Compound 9040]
5.7 µM | CC1(C)c2cc(Br)ccc2NC1c1c[nH]c2cc(O)ccc12 (stereo not drawn) [Compound 13542]
5 µM | Clc1ccc(Nc2nc3ccccc3[nH]2)cc1Cl [Compound 13186]
9.72 µM | Brc1ccc2nc(-c3c[nH]c4ccccc34)cn2c1 [Compound 13050]
1.1 µM | Cn1cc(-c2ccc3ccccc3n2)c2ccccc21 [Compound 13571]
2.5 µM | Brc1ccc2cc(CCc3cc4ccc(Br)cc4[nH]3)[nH]c2c1 [Compound 9043]
5 µM | Cc1[nH]c2ccccc2c1SCc1ccccc1F [Compound 13224]
3 µM | Cc1cccc2c(-c3ccc4nccnc4n3)c[nH]c12 [Compound 13644]
0.8 µM | Cc1cccc2c(-c3ccc4c(CO)cccc4n3)c[nH]c12 [Compound 13680]
0.42 µM | N#Cc1cc(F)cc2c(-c3ccc4cccc(Cl)c4n3)c[nH]c12 [Compound 13732]
0.19 µM | Cc1c(F)ccc2c(-c3ccc4cccc(Br)c4n3)c[nH]c12 [Compound 13787]
10 µM | N#Cc1cn(CCCOc2ccccc2Cl)c2ccccc12 [Compound 13232]
4.5 µM | FC(F)(F)c1cccc(/N=C/c2c[nH]c3ccccc23)c1 [Compound 13303]
1.6 µM | Fc1cccc2c(-c3ccc4ccccc4n3)c[nH]c12 [Compound 13569]

IC50 | Compound
3.4 µM | Cn1c(-c2c[nH]c3ccccc23)cc2ccccc21 [Compound 13505]
2.9 µM | FC(F)(F)c1ccc2c(-c3ccc4ccccc4n3)c[nH]c2c1 [Compound 13580]
0.036 µM | N#Cc1cccc2c(-c3ccc4cccc(Cl)c4n3)c[nH]c12 [Compound 13785]
3.7 µM | CNC(=O)c1cccc2nc(-c3c[nH]c4c(N5CCOCC5)c(F)c(F)cc34)ccc12 [Compound 13775]
4.09 µM | O=C(Nc1cccc(Br)c1O)c1cc2ccc(Br)cc2[nH]1 [Compound 9037]
0.013 µM | N#Cc1cccc2c(-c3ccc4ccc(F)cc4n3)c[nH]c12 [Compound 13786]
4.2 µM | Cc1ccc(/N=N/c2c[nH]c3ccccc23)cc1 [Compound 13257]
0.037 µM | CNC(=O)c1cccc2nc(-c3c[nH]c4c(F)cccc34)ccc12 [Compound 13713]
5.3 µM | c1ccc(COc2ccc3c(-c4ccc5ccccc5n4)c[nH]c3c2)cc1 [Compound 13589]
11.7 µM | O=C(Nc1n[nH]c2ccc(Br)cc12)c1cc(Br)ccc1O [Compound 9026]
6.8 µM | c1ccc(-c2ccccc2/N=N/c2c[nH]c3ccccc23)cc1 [Compound 13258]
2.8 µM | Cc1cccn2cc(-c3c[nH]c4ccccc34)nc12 [Compound 13216]
3.9 µM | S=C(c1c[nH]c2ccccc12)N1CCOCC1 [Compound 13243]
15.5 µM | Oc1ccc2c(C3Nc4ccccc4C34CCCCC4)c[nH]c2c1 (stereo not drawn) [Compound 13551]
12.7 µM | Clc1ccc(Cl)c2c(-c3ccc4ccccc4n3)c[nH]c12 [Compound 13640]
0.7 µM | c1ccc2c(c1)CCN2c1nc2ccccc2o1 [Compound 13220]
2.2 µM | O=c1[nH]c2ccccc2n1-c1nc2ccccc2[nH]1 [Compound 13214]
0.404 µM | Fc1cc2[nH]cc(-c3ccc4cccc(F)c4n3)c2cc1F [Compound 13651]

Same assay, conditions: eGFP IC50, LN-ARR2PBeGFP LNCaP cells, 0.1 nM R1881, 3 days incubation

Compound | IC50
Oc1ccc(Cn2c(-c3ccc(O)cc3)nc3ccccc32)cc1 [Compound 13029] | 3.22 µM
